Laboratory results from the NIST ThermoML archive (doi:10.1016/j.jct.2016.07.008).

Experiment: xn = mol fraction of the nth substance listed
Details: Liquid, Vibrating wire viscometry

CC(C)CC(C)(C)C [2,2,4-trimethylpentane] + CCCCO
viscosity [mPa·s]
Details	293.15 K	313.15 K	333.15 K	353.15 K
100 kPa, x2 = 0.3002	0.651	0.4938	0.3855	0.3085
100 kPa, x2 = 0.5003	0.8986	0.6427	0.4739	0.3658
100 kPa, x2 = 0.8	1.777	1.151	0.7766	0.5523
1000 kPa, x2 = 0.3002	0.6579	0.4951	0.3922	0.3131
1000 kPa, x2 = 0.5003	0.9064	0.6458	0.4756	0.3715
1000 kPa, x2 = 0.8	1.805	1.161	0.7891	0.5621
5000 kPa, x2 = 0.3002	0.6912	0.5303	0.4188	0.3362
5000 kPa, x2 = 0.5003	0.9556	0.6742	0.5003	0.3955
5000 kPa, x2 = 0.8	1.837	1.216	0.8182	0.5811
10000 kPa, x2 = 0.3002	0.7318	0.5681	0.4439	0.3574
10000 kPa, x2 = 0.5003	0.9979	0.7086	0.5334	0.4195
10000 kPa, x2 = 0.8	1.949	1.279	0.868	0.6183
20000 kPa, x2 = 0.3002	0.8168	0.6344	0.4973	0.3982
20000 kPa, x2 = 0.5003	1.14	0.8024	0.5894	0.4654
20000 kPa, x2 = 0.8	2.161	1.402	0.9602	0.6708
30000 kPa, x2 = 0.3002	0.9098	0.7073	0.552	0.4475
30000 kPa, x2 = 0.5003	1.274	0.8924	0.6494	0.5151
30000 kPa, x2 = 0.8	2.353	1.54	1.04	0.7334
40000 kPa, x2 = 0.3002	1.004	0.7728	0.6073	0.491
40000 kPa, x2 = 0.5003	1.415	0.9864	0.7134	0.5714
40000 kPa, x2 = 0.8	2.578	1.674	1.132	0.793
50000 kPa, x2 = 0.3002	1.108	0.8419	0.6677	0.5403
50000 kPa, x2 = 0.5003	1.562	1.084	0.7814	0.6195
50000 kPa, x2 = 0.8	2.826	1.825	1.232	0.8609
60000 kPa, x2 = 0.3002	1.215	0.9375	0.7297	0.592
60000 kPa, x2 = 0.5003	1.739	1.186	0.8534	0.679
60000 kPa, x2 = 0.8	3.038	1.972	1.328	0.9278
70000 kPa, x2 = 0.3002	1.324	1.005	0.7944	0.6322
70000 kPa, x2 = 0.5003	1.895	1.292	0.9294	0.7319
70000 kPa, x2 = 0.8	3.308	2.114	1.419	0.9984
80000 kPa, x2 = 0.3002	1.433	1.081	0.857	0.6788
80000 kPa, x2 = 0.5003	2.055	1.402	1.009	0.7953
80000 kPa, x2 = 0.8	3.537	2.283	1.531	1.069
100000 kPa, x2 = 0.3002	1.679	1.235	0.9892	0.7915
100000 kPa, x2 = 0.5003	2.387	1.634	1.181	0.9151
100000 kPa, x2 = 0.8	4.066	2.619	1.735	1.203
120000 kPa, x2 = 0.3002	1.942	1.413	1.133	0.8951
120000 kPa, x2 = 0.5003	2.735	1.882	1.369	1.026
120000 kPa, x2 = 0.8	4.653	2.954	1.973	1.365
140000 kPa, x2 = 0.3002	2.211	1.587	1.279	1.007
140000 kPa, x2 = 0.5003	3.099	2.146	1.573	1.14
140000 kPa, x2 = 0.8	5.322	3.328	2.212	1.526
